# Laboratory results published in patent US20050186569A1, “Nucleic acid-associated proteins” (priority 2001, published 2005).
# Experiments:
# [1] = system: SEQ ID NO:100 expression in HMVECdNeos; experiment: Microarray expression analysis of HMVECdNeos treated with TNF-α versus untreated cells; format: cell-based, human; settings: HMVECdNeos at 85% confluence treated 1, 2, 4, 8, and 24 hours with TNF-α, versus untreated (0 hour)
# Procedure: (§1) Total RNA is isolated from tissue samples using the guanidinium thiocyanate method and poly(A)^+ RNA is purified using the oligo-(dT) cellulose method. Each poly(A)^+ RNA sample is reverse transcribed using MMLV reverse-transcriptase, 0.05 pg/μl oligo-(dT) primer (21mer), 1× first strand buffer, 0.03 units/μl RNase inhibitor, 500 μM dATP, 500 μM dGTP, 500 μM dTTP, 40 μM dCTP, 40 μM dCTP-Cy3 (BDS) or dCTP-Cy5 (Amersham Biosciences). The reverse transcription reaction is performed in a […] containing 200 ng poly(A)^+ RNA with GEMBRIGHT kits (Incyte Genomics). Specific control poly(A)^+ RNAs are synthesized by in vitro transcription from non-coding yeast genomic DNA. […]
# (§2) Sequences of the present invention are used to generate array elements. […] Array elements are amplified in thirty cycles of PCR from an initial quantity of 1-2 ng to a final quantity greater than 5 μg. […]
# (§3) Reporter-labeled hybridization complexes are detected with a microscope equipped with an Innova 70 mixed gas 10 W laser (Coherent, Inc., Santa Clara Calif.) capable of generating spectral lines at 488 nm for excitation of Cy3 and at 632 nm for excitation of Cy5. […]
# (§4) A grid is superimposed over the fluorescence signal image such that the signal from each spot is centered in each element of the grid. […]
# [2] = system: SEQ ID NO:108 expression in HMVECdNeo cells; experiment: Microarray RNA expression of HMVECdNeo cells treated with TNF-α versus untreated cells; format: cell-based, human; settings: TNF-α 10 ng/ml for 2, 4, 8, and 24 hours, result at the last three time points, versus untreated (0 hour)
# Procedure: as §1, §2, §3, §4
substance,measurement,setting,value
TNF-α,expression of SEQ ID NO:100,[1],decreased expression
same,expression of SEQ ID NO:108 (underexpressed),[2],at least two-fold
